Results on 19 molecules are retold here after US8471005B2 (Cephalon, Inc., priority 2008, dated 2013).

One assay has as its target T1, JAK2 (Homo sapiens, UniProt O60674).
T1 construct: host or cells: baculovirus expression system
In words: Recombinant Human JAK2 Kinase Assay (TRF). The settings on record: JAK2 Kinase Inhibition; read-out: JAK2 Potency. Type of assay: biochemical. The method, boiled down:
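Europium-labelled PY100 antibody reported tyrosine phosphorylation of a Neutravidin-captured biotinyl 15-mer peptide by JAK2 (baculovirus-expressed, 15 ng/ml). Conditions: 20 mM HEPES pH 7.2, 0.2 μM ATP, 1 mM MnCl2, 0.1% BSA, DMSO 2.5% final, 20 min at room temperature.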

A further assay has as its target T2, ALK (Homo sapiens, UniProt Q9UM73).
T2 construct: host or cells: baculovirus expression system
In words: ALK Kinase Assay (ELISA/TRF, PLC-γ substrate). The format is biochemical. As to conditions: ALK Kinase Inhibition; read-out: ALK Potency. The method, boiled down: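 PLC-γ substrate coated at 10 μg/mL in TBS; reaction started with 30 ng/ml ALK, run 15 min at 37° C. Phosphoproduct detected by TRF with Eu-N1-labeled PT66 anti-phosphotyrosine antibody. IC50 from sigmoidal variable-slope fit of percent inhibition versus log concentration.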
A general note: An ELISA detects its analyte on a solid surface through an enzyme-linked reagent.

T1 sequence (O60674 whole entry): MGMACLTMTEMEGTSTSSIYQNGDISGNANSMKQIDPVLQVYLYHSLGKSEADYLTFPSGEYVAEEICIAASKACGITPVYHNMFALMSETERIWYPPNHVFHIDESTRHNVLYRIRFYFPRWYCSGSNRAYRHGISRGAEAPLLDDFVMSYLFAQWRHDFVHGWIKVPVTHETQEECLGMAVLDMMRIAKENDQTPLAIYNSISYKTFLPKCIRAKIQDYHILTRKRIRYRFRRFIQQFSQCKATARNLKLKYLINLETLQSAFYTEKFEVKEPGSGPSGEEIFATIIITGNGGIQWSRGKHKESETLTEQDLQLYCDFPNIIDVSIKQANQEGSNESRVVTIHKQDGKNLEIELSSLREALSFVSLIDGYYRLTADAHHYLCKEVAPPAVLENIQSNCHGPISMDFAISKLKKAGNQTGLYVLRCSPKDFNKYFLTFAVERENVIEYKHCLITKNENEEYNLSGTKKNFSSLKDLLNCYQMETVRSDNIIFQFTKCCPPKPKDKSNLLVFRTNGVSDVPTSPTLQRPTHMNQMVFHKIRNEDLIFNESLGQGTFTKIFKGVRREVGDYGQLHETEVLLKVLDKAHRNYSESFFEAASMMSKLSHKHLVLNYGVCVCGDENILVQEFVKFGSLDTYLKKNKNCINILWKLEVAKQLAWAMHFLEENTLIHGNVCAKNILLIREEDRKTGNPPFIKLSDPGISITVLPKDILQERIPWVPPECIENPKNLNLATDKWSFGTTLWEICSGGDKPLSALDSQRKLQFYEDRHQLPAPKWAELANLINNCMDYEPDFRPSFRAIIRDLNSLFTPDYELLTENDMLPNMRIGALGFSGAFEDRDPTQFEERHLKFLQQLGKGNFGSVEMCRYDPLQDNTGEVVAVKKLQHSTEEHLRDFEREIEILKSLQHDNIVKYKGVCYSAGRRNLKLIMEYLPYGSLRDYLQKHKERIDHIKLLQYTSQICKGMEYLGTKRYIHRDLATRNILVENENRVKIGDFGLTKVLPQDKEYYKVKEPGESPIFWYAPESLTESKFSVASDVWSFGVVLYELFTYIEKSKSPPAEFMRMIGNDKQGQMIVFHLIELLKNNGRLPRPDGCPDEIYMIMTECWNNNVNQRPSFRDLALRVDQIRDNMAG
T2 sequence (Q9UM73 19-1620): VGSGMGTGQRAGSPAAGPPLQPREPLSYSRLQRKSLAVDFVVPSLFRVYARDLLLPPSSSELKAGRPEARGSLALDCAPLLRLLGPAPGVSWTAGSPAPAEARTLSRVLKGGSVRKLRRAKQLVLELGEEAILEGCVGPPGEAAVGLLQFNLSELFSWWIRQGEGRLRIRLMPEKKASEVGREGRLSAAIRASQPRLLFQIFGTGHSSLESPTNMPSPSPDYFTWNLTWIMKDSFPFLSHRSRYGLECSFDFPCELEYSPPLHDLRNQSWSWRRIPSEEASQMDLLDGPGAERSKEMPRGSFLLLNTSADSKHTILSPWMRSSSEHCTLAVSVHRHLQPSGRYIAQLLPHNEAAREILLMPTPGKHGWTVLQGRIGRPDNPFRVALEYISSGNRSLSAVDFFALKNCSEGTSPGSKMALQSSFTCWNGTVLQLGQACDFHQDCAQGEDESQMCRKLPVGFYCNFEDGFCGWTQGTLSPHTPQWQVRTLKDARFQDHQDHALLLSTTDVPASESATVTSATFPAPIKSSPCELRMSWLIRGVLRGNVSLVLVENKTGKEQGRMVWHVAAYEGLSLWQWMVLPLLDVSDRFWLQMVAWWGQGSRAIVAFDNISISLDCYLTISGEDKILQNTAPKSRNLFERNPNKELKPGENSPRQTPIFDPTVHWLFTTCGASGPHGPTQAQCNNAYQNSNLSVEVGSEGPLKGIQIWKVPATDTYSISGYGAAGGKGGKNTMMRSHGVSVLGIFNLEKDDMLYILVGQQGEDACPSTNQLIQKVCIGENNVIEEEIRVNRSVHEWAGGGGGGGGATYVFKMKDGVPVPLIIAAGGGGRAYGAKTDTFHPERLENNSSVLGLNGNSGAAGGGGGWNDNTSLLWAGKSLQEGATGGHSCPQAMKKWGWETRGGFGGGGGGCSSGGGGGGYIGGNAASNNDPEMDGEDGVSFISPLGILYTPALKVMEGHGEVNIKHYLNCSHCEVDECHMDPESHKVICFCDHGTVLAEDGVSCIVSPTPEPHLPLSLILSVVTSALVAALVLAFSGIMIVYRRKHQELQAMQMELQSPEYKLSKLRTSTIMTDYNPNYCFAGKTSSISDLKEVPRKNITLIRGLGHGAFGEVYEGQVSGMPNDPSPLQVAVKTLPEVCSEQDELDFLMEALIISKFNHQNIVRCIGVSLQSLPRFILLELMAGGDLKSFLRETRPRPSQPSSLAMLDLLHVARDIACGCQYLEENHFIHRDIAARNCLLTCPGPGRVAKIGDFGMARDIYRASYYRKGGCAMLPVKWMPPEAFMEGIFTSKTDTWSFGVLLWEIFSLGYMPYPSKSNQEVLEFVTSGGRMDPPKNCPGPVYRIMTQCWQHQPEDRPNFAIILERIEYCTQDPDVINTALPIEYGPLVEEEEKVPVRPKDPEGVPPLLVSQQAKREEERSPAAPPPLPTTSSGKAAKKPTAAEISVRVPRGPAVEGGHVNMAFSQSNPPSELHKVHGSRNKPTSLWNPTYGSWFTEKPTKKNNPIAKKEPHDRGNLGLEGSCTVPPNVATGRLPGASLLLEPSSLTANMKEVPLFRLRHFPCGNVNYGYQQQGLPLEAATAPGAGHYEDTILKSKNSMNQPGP

On to `CN1CCN(c2cccc(Nc3ncc4ccc(-c5cccc6c5OC(F)(F)O6)n4n3)c2)CC1` [Example 1534, [7-(2,2-Difluoro-benzo[1,3]dioxol-4-yl)-pyrrolo[2,1-f][1,2,4]triazin-2-yl]-[3-(4-methyl-piperazin-1-yl)-phenyl]-amine], for which the IC50 is < 100 nM at JAK2 and 100 to 1000 nM at ALK.
In the same order, the values of `FC1(F)Oc2cccc(-c3ccc4cnc(Nc5ccc6c(c5)CCC(N5CCOCC5)CC6)nn34)c2O1` (centres unmarked) [Example 1535, [7-(2,2-Difluoro-benzo[1,3]dioxol-4-yl)-pyrrolo[2,1-f][1,2,4]triazin-2-yl]-(7-morpholin-4-yl-6,7,8,9-tetrahydro-5H-benzocyclohepten-2-yl)-amine] are < 100 nM and 1000 to 10000 nM.
Regarding `FC1(F)Oc2cccc(-c3ccc4cnc(Nc5ccc6[nH]c(CN7CCOCC7)nc6c5)nn34)c2O1` [Example 1536, [7-(2,2-Difluoro-benzo[1,3]dioxol-4-yl)-pyrrolo[2,1-f][1,2,4]triazin-2-yl]-(2-morpholin-4-ylmethyl-1H-benzoimidazol-5-yl)-amine], the IC50 on JAK2 is < 100 nM; on ALK, 100 to 1000 nM.
On to `CS(=O)(=O)c1cccc(-c2ccc3cnc(Nc4ccc5[nH]c(CN6CCOCC6)nc5c4)nn23)c1` [Example 1537, [7-(3-Methanesulfonyl-phenyl)-pyrrolo[2,1-f][1,2,4]triazin-2-yl]-(2-morpholin-4-ylmethyl-1H-benzimidazol-5-yl)-amine], for which the IC50 at JAK2 is < 100 nM; at ALK it was 1000 to 10000 nM.
`CN1CCN(Cc2nc3cc(Nc4ncc5ccc(-c6cccc(S(C)(=O)=O)c6)n5n4)ccc3[nH]2)CC1` [Example 1538, [7-(3-Methanesulfonyl-phenyl)-pyrrolo[2,1-f][1,2,4]triazin-2-yl]-[2-(4-methyl-piperazin-1-ylmethyl)-1H-benzimidazol-5-yl]-amine]: the IC50 on JAK2 is < 100 nM; on ALK it was 100 to 1000 nM.
Turning to `CS(=O)(=O)c1cccc(-c2ccc3cnc(Nc4ccc5[nH]c(CN6CCN(CCO)CC6)nc5c4)nn23)c1` [Example 1539, 2-(4-{5-[7-(3-Methanesulfonyl-phenyl)-pyrrolo[2,1-f][1,2,4]triazin-2-ylamino]-1H-benzimidazol-2-ylmethyl}-piperazin-1-yl)-ethanol], the IC50 is < 100 nM at JAK2 and 1000 to 10000 nM on ALK.
Turning to `NC(=O)CN1CCC(c2ccc(Nc3ncc4ccc(-c5cccc6c5OC(F)(F)O6)n4n3)cc2)CC1` [Example 1540, 2-(4-{4-[7-(2,2-Difluoro-benzo[1,3]dioxol-4-yl)-pyrrolo[2,1-f][1,2,4]triazin-2-ylamino]-phenyl}-piperidin-1-yl)-acetamide], the results for the IC50 at JAK2 and on ALK were < 100 nM and 100 to 1000 nM, respectively.
Take `CS(=O)(=O)c1ccc(-c2ccc3cnc(Nc4ccc5[nH]c(CN6CCOCC6)nc5c4)nn23)cc1` [Example 1541, [7-(4-Methanesulfonyl-phenyl)-pyrrolo[2,1-f][1,2,4]triazin-2-yl]-(2-morpholin-4-ylmethyl-1H-benzimidazol-5-yl)-amine]: the IC50 on JAK2 is < 100 nM; on ALK, > 10000 nM.
On to `CN1CCN(Cc2nc3cc(Nc4ncc5ccc(-c6ccc(S(C)(=O)=O)cc6)n5n4)ccc3[nH]2)CC1` [Example 1542, [7-(4-Methanesulfonyl-phenyl)-pyrrolo[2,1-f][1,2,4]triazin-2-yl]-[2-(4-methyl-piperazin-1-ylmethyl)-1H-benzimidazol-5-yl]-amine], for which the IC50 on JAK2 is < 100 nM; at ALK, 1000 to 10000 nM.
As to `CS(=O)(=O)c1ccc(-c2ccc3cnc(Nc4ccc5[nH]c(CN6CCN(CCO)CC6)nc5c4)nn23)cc1` [Example 1543, 2-(4-{5-[7-(4-Methanesulfonyl-phenyl)-pyrrolo[2,1-f][1,2,4]triazin-2-ylamino]-1H-benzimidazol-2-ylmethyl}-piperazin-1-yl)-ethanol], the IC50 was < 100 nM at JAK2 and 1000 to 10000 nM at ALK.
For the molecule `CC(C)(C)NS(=O)(=O)c1cccc(-c2ccc3cnc(Nc4ccc(C5(C#N)CCN(CC(N)=O)CC5)cc4)nn23)c1` [Example 1544, 2-(4-{4-[7-(3-tert-Butylsulfamoyl-phenyl)-pyrrolo[2,1-f][1,2,4]triazin-2-ylamino]-phenyl}-4-cyano-piperidin-1-yl)-acetamide], the results for the IC50 at JAK2 and on ALK were < 100 nM and 100 to 1000 nM, respectively.
In the same order, the values of `COc1ccc(-c2ccc3cnc(Nc4ccc(C5(C#N)CCN(CC(N)=O)CC5)cc4)nn23)cn1` [Example 1545, 2-(4-Cyano-4-{4-[7-(6-methoxy-pyridin-3-yl)-pyrrolo[2,1-f][1,2,4]triazin-2-ylamino]-phenyl}-piperidin-1-yl)-acetamide] are < 100 nM and 100 to 1000 nM.
Consider `CS(=O)(=O)c1cccc(-c2ccc3cnc(Nc4ccc(C5(C#N)CCN(CC(N)=O)CC5)cc4)nn23)c1` [Example 1546, 2-(4-Cyano-4-{4-[7-(3-methanesulfonyl-phenyl)-pyrrolo[2,1-f][1,2,4]triazin-2-ylamino]-phenyl}-piperidin-1-yl)-acetamide], for which the IC50 at JAK2 was < 100 nM; on ALK it was 1000 to 10000 nM.
As to `CS(=O)(=O)c1ccc(-c2ccc3cnc(Nc4ccc(C5(C#N)CCN(CC(N)=O)CC5)cc4)nn23)cc1` [Example 1547, 2-(4-Cyano-4-{4-[7-(4-methanesulfonyl-phenyl)-pyrrolo[2,1-f][1,2,4]triazin-2-ylamino]-phenyl}-piperidin-1-yl)-acetamide], the IC50 is < 100 nM at JAK2 and 1000 to 10000 nM on ALK.
Consider `COc1ccccc1-c1ccc2cnc(Nc3ccc(C4(C#N)CCN(CC(N)=O)CC4)cc3)nn12` [Example 1548, 2-(4-Cyano-4-{4-[7-(2-methoxy-phenyl)-pyrrolo[2,1-f][1,2,4]triazin-2-ylamino]-phenyl}-piperidin-1-yl)-acetamide], for which the IC50 on JAK2 is < 100 nM; on ALK, 100 to 1000 nM.
As to `CN(c1ccccc1-c1ccc2cnc(Nc3ccc(C4(C#N)CCN(CC(N)=O)CC4)cc3)nn12)S(C)(=O)=O` [Example 1549, 2-[4-Cyano-4-(4-{7-[2-(methanesulfonyl-methyl-amino)-phenyl]-pyrrolo[2,1-f][1,2,4]triazin-2-ylamino}-phenyl)-piperidin-1-yl]-acetamide], the IC50 at JAK2 and on ALK was < 100 nM in each case.
With `CC(C)(C)NS(=O)(=O)c1cccc(-c2ccc3cnc(Nc4cccc(C5(O)CCNCC5)c4)nn23)c1` [Example 1550, N-tert-Butyl-3-{2-[3-(4-hydroxy-piperidin-4-yl)-phenylamino]-pyrrolo[2,1-f][1,2,4]triazin-7-yl}-benzenesulfonamide], the IC50 on JAK2 and at ALK was < 100 nM in each case.
For the molecule `COc1ccc(-c2ccc3cnc(Nc4cccc(C5(O)CCNCC5)c4)nn23)cn1` [Example 1551, 4-{3-[7-(6-Methoxy-pyridin-3-yl)-pyrrolo[2,1-f][1,2,4]triazin-2-ylamino]-phenyl}-piperidin-4-ol], the IC50 was < 100 nM at JAK2 and 100 to 1000 nM on ALK.
Turning to `CS(=O)(=O)c1cccc(-c2ccc3cnc(Nc4cccc(C5(O)CCNCC5)c4)nn23)c1` [Example 1552, 4-{3-[7-(3-Methanesulfonyl-phenyl)-pyrrolo[2,1-f][1,2,4]triazin-2-ylamino]-phenyl}-piperidin-4-ol], the IC50 was < 100 nM at JAK2 and 100 to 1000 nM on ALK.
